This note sets out measurements from patent US11337968B2, “Phenylquinoline compositions for treatment of ocular disorders and conditions” (The Board of Regents of the University of Oklahoma, priority 2016, dated 2022).

Molecules are shown by their SMILES. pEC50: −log10 of the molar value. “Also recorded” adds a separate entry of the source.

Test [1] addresses T1, PPARα (Homo sapiens, UniProt Q07869).
T1 sequence (Q07869 1-468): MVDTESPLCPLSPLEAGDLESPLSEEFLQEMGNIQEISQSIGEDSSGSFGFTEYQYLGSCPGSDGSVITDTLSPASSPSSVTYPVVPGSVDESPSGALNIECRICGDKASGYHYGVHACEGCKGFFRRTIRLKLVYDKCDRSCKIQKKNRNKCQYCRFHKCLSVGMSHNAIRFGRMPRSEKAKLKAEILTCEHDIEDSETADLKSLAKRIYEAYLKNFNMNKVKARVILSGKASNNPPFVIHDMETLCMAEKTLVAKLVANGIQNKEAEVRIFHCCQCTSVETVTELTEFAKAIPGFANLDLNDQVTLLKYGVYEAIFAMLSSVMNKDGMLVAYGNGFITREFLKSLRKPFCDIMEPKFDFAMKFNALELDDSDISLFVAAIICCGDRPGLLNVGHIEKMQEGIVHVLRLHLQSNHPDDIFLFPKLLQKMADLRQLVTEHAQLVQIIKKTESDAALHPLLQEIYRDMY
Kind of test: PPARα transcriptional activity in PPARα reporter Combo cells (luciferase). Further details: host or cells: PPARα reporter Combo cells. Type of test: cell-based. The settings on record: for PPARα transcriptional activity (luciferase), FIG. 1 and 2: 50 μM, PPARα reporter Combo cells; for PPARα transcriptional activity (luciferase), FIG. 1 and 2 / dose dependent effect on PPARα transcriptional activity, FIG. 3: 36 h; for dose dependent effect on PPARα transcriptional activity, FIG. 3: various concentrations up to 100 μM. The method, then: The PPARα reporter Combo cells were treated with the indicated compounds at concentrations of 50 μM for 36 h, and then luciferase activities were measured.
The PPARα reporter Combo cells were treated with indicated compounds at concentrations of 50 μM for 36 h, and then luciferase activities were measured.
Various phenylquinoline derivatives of the present disclosure were tested for their effects on PPARα transcriptional activity in PPARα reporter Combo cells, including NCI8 and compounds 1-13 as disclosed herein, as measured against the effect of Feno-FA.
Cells were treated with various compounds at concentrations of 50 μM for 36 h, after which luciferase activities were measured. […] Cells were treated with various compounds at concentrations of 50 μM for 36 h, after which luciferase activities were measured. […] The experiments were repeated as various increasing concentrations comparing the effects of Feno-FA (FIG. 4), NCI8 (FIG. 5), compound 2 (FIG. 6), and compound 8 (FIG. 7).

Test [2] relates to retinal precursor cells (R28). Kind of test: TUNEL, palmitate-induced apoptosis in retinal precursor cells. Type of test: cell-based.
A further test deals with retinal leukostasis. Briefly: leukostasis assay in oxygen-induced retinopathy (OIR) model. Type of test: in vivo, C57BL/6 mice. Particulars: OIR mice, 10 mg/kg/day i.p. P12 to P16, examined at P17, vs vehicle.
Test [3] concerns human retinal Müller cells (MIO-M1). Briefly: TUNEL, palmitate-induced apoptosis in Müller cells. The test is classed as cell-based.
The next test concerns ICAM-1, MCP-1, TNF-α. Kind of test: retinal levels of inflammatory factors by Western blotting in OIR model. The settings on record: OIR mice, 10 mg/kg/day i.p. P12 to P16, Western blotting. The test is classed as in vivo, C57BL/6 mice. In general terms: A western blot detects proteins with antibodies after separation by electrophoresis.
For test [4], the system named is human retinal capillary endothelial cells (HRCEC). Kind of test: endothelial cell migration in HRCEC. The test is classed as cell-based.
The target in test [5] is T1, PPARα. Briefly: luciferase-based promoter assay of PPARα activation.
Experimental: The activation of PPARα by NCI8 was measured by luciferase-based promoter assay. […] Student's T-test was used for statistical analysis.
For another test, the system named is ARPE19 cells. Briefly: palmitate-induced cell death in ARPE19 cells. Type of test: cell-based.
The subject of test [6] is retinal capillaries and pericytes. Briefly: retinal capillary degeneration and pericyte loss in streptozotocin-induced diabetic rats. The settings on record: i.p., 10 mg/kg/day, 3 weeks. Type of test: in vivo.
A further test has as its system VEGF. Briefly: expression of VEGF. The settings on record: potency similar to or higher than fenofibrate.
For test [7], the system named is human retinal capillary endothelial cells (HRCEC). Kind of test: tube formation in HRCEC. The test is classed as cell-based.

In the case of `COc1ccc(-c2cc(C(=O)O)c3ccccc3n2)cc1OC` [Compound 2, 2-(3,4-dimethoxyphenyl) quinoline-4-carboxylic acid], on PPARα [1], the “PPARα transcriptional activity (luciferase), FIG. 1 and 2” value is on record as “highest agonistic activity”; the “dose dependent effect on PPARα transcriptional activity, FIG. 3” value was “greatest activity”. Besides, the “PPARα transcriptional activity at various increasing concentrations, FIG. 4-7” value on PPARα [1] (compared with Feno-FA, NCI8, compound 8) is “greatest agonistic activity”.
In the case of `O=C(O)c1cc(-c2ccccc2O)nc2ccccc12` [Compound 8, 2-(2-hydroxyphenyl) quinoline-4-carboxylic acid], on PPARα [1], the “PPARα transcriptional activity (luciferase), FIG. 1 and 2” value was “highest agonistic activity”; the “dose dependent effect on PPARα transcriptional activity, FIG. 3” value is “greatest activity”.
Turning to `Cc1c(Cl)ccc2c(C(=O)O)cc(-c3ccccc3)nc12` [NCI8, 7-chloro-8-methyl-2-phenylquinoline-4-carboxylic acid], in [2], the “palmitate-induced apoptosis of retinal precursor cells” value is “protective effect”. For the same compound, in the test with retinal leukostasis, the “number of adherent leukocytes in the retinal vasculature (retinal leukostasis)” value was “decreased; also recorded: significantly reduced”. Further, in test [3], the “palmitate-induced apoptosis of human retinal Müller cells” value is listed as “protective effect”. In the test with ICAM-1, MCP-1, TNF-α, the “retinal level of ICAM-1” value is listed as “downregulated; also recorded: significantly down-regulated”, the “retinal level of MCP-1” value is “downregulated; also recorded: significantly down-regulated” and the “retinal level of TNF-α” value is “downregulated; also recorded: significantly down-regulated”. Further, in test [4], the HRCEC migration result is “significantly inhibited” and the “concentration range of concentration-dependent inhibition of endothelial cell migration” value is 50 to 200 µM. Also, on PPARα [5], the negative logarithm of the EC50 (pEC50) was 4.30. Further, the PPARα transcriptional activity entry at PPARα [5] (luciferase-based promoter assay) was “activated PPARα transcriptional activity in a concentration-dependent manner; also recorded: Potent effects in enhancing transcriptional activities of PPARα”. Further, in the test on ARPE19 cells, the “RPE cell death induced by palmitate” value is “protection of RPE cells from cell death”. Moreover, the “pericyte loss (pericyte numbers)” value in test [6] (diabetic rats) is on record as “ameliorated; also recorded: significantly increased”. The “retinal capillary degeneration (numbers of acellular capillaries in the retina)” value in test [6] (streptozotocin-induced diabetic rats) is “ameliorated; also recorded: decreased”. The “expression of VEGF” value in the test on VEGF is on record as “inhibited”. Further, the HRCEC tube formation entry in [7] is on record as “significantly inhibited; also recorded: higher potency than fenofibric acid”.

The pEC50 is the EC50 on a negative log10 scale, so that one unit is a factor of ten. Read a high pEC50 as a small EC50.
